Article PMC6541974, “Rho-Kinase II Inhibitory Potential of Eurycoma longifolia New Isolate for the Management of Erectile Dysfunction” (Evidence-based Complementary and Alternative Medicine : eCAM, 2019)
Where two headings read alike, the source gives them in different places.

Assays:
ROCK-II = biological target: T1, ROCK-II (Homo sapiens, UniProt O75116); experiment: ROCK-II inhibition assay (ADP-Glo Kinase Assay, ROCK2 Kinase assay); assay type: biochemical; settings: for inhibition at 0.01 µg/mL / inhibition at 0.1 µg/mL / inhibition at 1 µg/mL / inhibition at 10 µg/mL: read-out: % of inhibition of ROCK-II ± SD
T1 construct: purchased Promega, USA
Protocol: A vehicle control for 5% DMSO was used in the assay to check the interference. Standard curve for ROCK-II enzyme was done (Figure 2). Serial dilution and IC50 of the AE was performed in triplicate.
The assay was repeated as mentioned in Section 2.3 on the AE fractions and the isolates T1-T8.
The assay performance measure was used to validate the screening assay quality through calculation of Z-factor according to methodology of Zhang et al., 1999 [18].
Enzyme inhibition by tested samples is expressed as mean ± SD and analyzed using Prism program version 6 (GraphPad Software, Inc., San Diego CA); comparisons among tested samples were carried out using one-way analysis of variance (ANOVA) followed by Bonferroni's multiple comparisons test. P ‹ 0.05 was considered significant.

testosterone production = system: testosterone production; design: method as in PMID 26978330; settings: cited from earlier work
aromatase enzyme = system: aromatase enzyme; design: method as in PMID 23810842; settings: Leydig cells, transformation of testosterone to estrogen; cited from earlier work
phosphodiesterase = system: phosphodiesterase; design: method as in PMID 23810842; settings: high concentration; cited from earlier work
[1] = mean ± SD, triplicates, read-out: IC50 (converted)

T1 sequence (O75116 whole entry): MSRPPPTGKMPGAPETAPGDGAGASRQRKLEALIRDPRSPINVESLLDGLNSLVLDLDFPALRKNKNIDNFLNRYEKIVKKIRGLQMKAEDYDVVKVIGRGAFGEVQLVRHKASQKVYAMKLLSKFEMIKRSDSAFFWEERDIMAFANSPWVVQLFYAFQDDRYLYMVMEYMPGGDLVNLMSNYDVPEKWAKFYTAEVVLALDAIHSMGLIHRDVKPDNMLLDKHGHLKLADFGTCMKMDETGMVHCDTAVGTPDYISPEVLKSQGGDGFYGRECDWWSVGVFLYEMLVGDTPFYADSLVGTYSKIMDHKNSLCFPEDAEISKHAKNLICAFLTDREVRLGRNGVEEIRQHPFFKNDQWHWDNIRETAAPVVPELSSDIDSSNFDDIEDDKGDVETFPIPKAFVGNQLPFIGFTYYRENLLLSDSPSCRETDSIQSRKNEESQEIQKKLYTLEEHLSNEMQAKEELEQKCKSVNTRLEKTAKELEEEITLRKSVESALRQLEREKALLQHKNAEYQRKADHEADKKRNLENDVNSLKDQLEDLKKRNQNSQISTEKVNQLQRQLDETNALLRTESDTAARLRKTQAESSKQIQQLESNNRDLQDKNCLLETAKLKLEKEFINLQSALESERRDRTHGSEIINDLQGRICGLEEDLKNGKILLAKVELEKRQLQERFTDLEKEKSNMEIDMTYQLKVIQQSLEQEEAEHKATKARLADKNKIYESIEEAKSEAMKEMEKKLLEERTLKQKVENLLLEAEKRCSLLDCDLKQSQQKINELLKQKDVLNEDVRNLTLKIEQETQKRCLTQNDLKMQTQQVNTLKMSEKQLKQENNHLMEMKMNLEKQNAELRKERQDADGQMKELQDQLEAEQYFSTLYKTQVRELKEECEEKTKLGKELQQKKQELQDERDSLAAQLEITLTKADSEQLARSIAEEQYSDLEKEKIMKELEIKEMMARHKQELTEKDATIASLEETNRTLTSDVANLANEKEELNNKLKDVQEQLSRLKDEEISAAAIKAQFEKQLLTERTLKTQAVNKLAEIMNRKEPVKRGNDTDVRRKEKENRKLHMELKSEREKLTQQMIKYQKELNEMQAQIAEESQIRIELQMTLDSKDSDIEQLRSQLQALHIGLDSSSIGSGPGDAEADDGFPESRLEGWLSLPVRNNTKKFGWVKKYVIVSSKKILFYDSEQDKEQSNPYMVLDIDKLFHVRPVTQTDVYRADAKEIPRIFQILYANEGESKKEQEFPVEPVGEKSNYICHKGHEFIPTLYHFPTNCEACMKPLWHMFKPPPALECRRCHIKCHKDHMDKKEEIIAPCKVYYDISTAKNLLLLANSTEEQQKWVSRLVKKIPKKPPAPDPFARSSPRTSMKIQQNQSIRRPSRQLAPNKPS

In the case of `C[C@@H](N)[C@H]1CC[C@H](C(=O)Nc2ccncc2)CC1.Cl.Cl` (relative stereo) [Compound Y-27632, (+)-(R)-trans-4-(1-aminoethyl)-N-(4-pyridyl)cyclohexanecarboxamide dihydrochloride, reference compound], the “% of inhibition of ROCK-II ± SD” value (ROCK-II; concentration 0.01 µg/ml) is reported as 22.5 ± 1.27∗ %, the “% of inhibition of ROCK-II ± SD” value (ROCK-II; concentration 0.1 µg/ml) is reported as 42.15 ± 2.19∗ % and the “% of inhibition of ROCK-II ± SD” value (ROCK-II; concentration 1 µg/ml) is reported as 68.15 ± 2.75∗ %. The “% of inhibition of ROCK-II ± SD” value (ROCK-II; concentration 10 µg/ml) was 89.9± 0.42∗ % and the “inhibition for ROCK-II activity” value (ROCK-II; concentrations 1-10 μg/ml) was 68.15-89.9%.

Work on `CC[C@H](/C=C/[C@@H](C)[C@H]1CC[C@H]2[C@@H]3CC=C4C[C@@H](O)CC[C@]4(C)[C@H]3CC[C@]12C)C(C)C` [Compound T1, stigmasterol] yielded an IC50 (ROCK-II; [1]) of 14.9 µM, an inhibition at 0.01 µg/mL (ROCK-II) of 2.78 ± 1.84% and an inhibition at 0.1 µg/mL (ROCK-II) of 13.3 ± 2.26%. The inhibition at 1 µg/mL (ROCK-II) was 27.4 ± 2.47% and the inhibition at 10 µg/mL (ROCK-II) was 60.3 ± 0.14%.

With `COc1cc(/C=C/C=O)ccc1O` [Compound T2, trans-coniferyl aldehyde] the inhibition at 0.01 µg/mL (ROCK-II; concentration 0.01 µg/ml) was 10.6 ± 2.94%, the inhibition at 0.1 µg/mL (ROCK-II; concentration 0.1 µg/ml) was 33.2 ± 1.55% and the inhibition at 1 µg/mL (ROCK-II; concentration 1 µg/ml) was 68.5 ± 0.35%. For the same compound, the inhibition at 10 µg/mL (ROCK-II; concentration 10 µg/ml) was 82.1 ± 0.63% and the IC50 (ROCK-II; [1]) was 2.01 µM.

In the case of `COc1cc2ccc(=O)oc2cc1O` [Compound T3, scopoletin], the inhibition at 0.01 µg/mL (ROCK-II; concentration 0.01 µg/ml) is reported as 10.1 ± 3.34%, the inhibition at 0.1 µg/mL (ROCK-II; concentration 0.1 µg/ml) is reported as 25 ± 2.47% and the inhibition at 1 µg/mL (ROCK-II; concentration 1 µg/ml) is reported as 66.15 ± 0.07%. It also gave an inhibition at 10 µg/mL (ROCK-II; concentration 10 µg/ml) of 77.1 ± 0.11% and an IC50 (ROCK-II; [1]) of 2.73 µM.

`CC1=CC(=O)[C@@H](O)[C@@]2(C)[C@H]1CC(=O)[C@@]1(C)[C@H]3C(=O)O[C@H]([C@@H]3C)[C@H](O)[C@@H]12` [Compound T4, eurycomalactone] showed an IC50 (ROCK-II) of 2.28 µM, an inhibition at 0.01 µg/mL (ROCK-II) of 6.13 ± 0.44% and an inhibition at 0.1 µg/mL (ROCK-II) of 25.7 ± 2.47%. It also gave an inhibition at 1 µg/mL (ROCK-II) of 54 ± 0.42% and an inhibition at 10 µg/mL (ROCK-II) of 76.2 ± 3.53%.

In the case of `C=C1C(O)C2(O)OCC34C(CC5C(C)=CC(OC6OC(CO)C(O)C(O)C6O)C(O)C5(C)C23)OC(=O)C(O)C14O` [Compound T8, eurycomanol-2-O-β-D-glycopyranoside], the IC50 (ROCK-II) is reported as 2.52 µM, the inhibition at 0.01 µg/mL (ROCK-II) is reported as 4.06 ± 3.8% and the inhibition at 0.1 µg/mL (ROCK-II) is reported as 17 ± 0.77%. The inhibition at 1 µg/mL (ROCK-II) was 46.5 ± 1.62% and the inhibition at 10 µg/mL (ROCK-II) was 71.4 ± 2.54%.

For eurycomanone [Compound T6], the “% of inhibition of ROCK-II ± SD” value (ROCK-II; concentration 0.01 µg/ml) was 5.4 ± 3.74%, the “% of inhibition of ROCK-II ± SD” value (ROCK-II; concentration 0.1 µg/ml) was 26.4 ± 2.61∗ % and the “% of inhibition of ROCK-II ± SD” value (ROCK-II; concentration 1 µg/ml) was 57.1 ± 0.56∗ %. For the same compound, the “% of inhibition of ROCK-II ± SD” value (ROCK-II; concentration 10 µg/ml) was 78.3 ± 0.38∗ %, the IC50 (ROCK-II; mean ± SD, triplicates) was 677 ± 51.1∗ ng/ml and the testosterone production (testosterone production) was “induce testosterone production”. The aromatase enzyme inhibition (aromatase enzyme) was “aromatase enzyme inhibition” and the effect on phosphodiesterase (phosphodiesterase) was “inhibitory effect”.
